Results reported in US5116815A, “PF 1022 substance, method of treating helminthic parasitic infection and anthelmintic composition” (Meiji Seika Kaisha Ltd., priority 1989, dated 1992).
“And” between values parts separate entries of the source, which are not always exact repeats. Equal entries are not always repeated.

How the values were obtained:
[1] = tested on: large intestinal roundworms (Ascaridia galli); assay: Chicken large intestinal roundworms, administration in feed for 3 weeks; format: in vivo; settings: chickens; for Number of eggs before starting administration: baseline
Experimental: The PF 1022 substance was evaluated for its anthelmintic effect on 9 chickens found, by scatoscopy, to be infected with large intestinal roundworms (Ascaridia galli) by administering it in admixture with the feed.
The chickens were divided into three groups of 3 animals, which served as the 1 ppm, 5 ppm and 10 ppm groups. The feed containing the PF 1022 substance in each concentration mentioned above was given to the chickens for 3 weeks. Parasite eggs in feces were counted at one-week intervals in terms of EPG and worms eliminated were counted daily. At the end of the administration period, the chickens were sacrificed and autopsied and the worms remaining therein were counted.

[2] = tested on: strongyles (Strongylus spp.); assay: Anthelmintic effect on equine strongyles; format: in vivo; settings: horse, oral 5 mg/kg Day 0 and 2.5 mg/kg Day 1
Experimental: (§1) The PF 1022 substance was evaluated for its anthelmintic effect in a horse found by scatoscopy to be infected with roundworms (Parascaris equorum) and strongyles (Strongylus spp.) by orally administering the substance thereto.
(§2) The PF 1022 substance was suspended in water and administered with a stomach catheter at 5 mg/kg on the first day and at 2.5 mg/kg on the second day. For both the roundworms and strongyles, parasite eggs in each gram of feces (EPG) as well as parasites eliminated were counted daily for one week following the first administration. For strongyles, the number of worms in 100 g of feces was determined.

Solubility = format: physicochemical
Excerpt: (11) Solubility: Soluble in methanol, ethyl acetate, acetone, chloroform and dimethyl sulfoxide; insoluble in water;

[3] = tested on: hookworms (Ancylostoma caninum); assay: Anthelmintic effect on canine hookworms; format: in vivo; settings: dog, single oral dose 5 mg/kg
Experimental: The PF 1022 substance was evaluated for its anthelmintic effect in dogs by orally administering it to dogs found to be infected with roundworms (Toxocara canis), hookworms (Ancylostoma caninum) and whipworms (Trichuris vulpisl), respectively, by scatoscopy.
The substance was orally administered once at the dose of 5 mg/kg to a dog infected with the roundworms or hookworms by admixing the substance with a small portion of the ordinary feed, and the worms eliminated and those remaining in the dog during 7 days following administration were counted.

[4] = tested on: fourth stomachworms (Ostertaqia circumcincta); assay: Sheep digestive tract nematodes, worms remaining in the fourth stomach; format: in vivo; settings: for number of worms remaining in the fourth stomach at autopsy: autopsy 7 days after administration, mean of 6 animals
Experimental: The PF 1022 substance was evaluated for its anthelmintic effect in sheep mixedly infected with fourth stomachworms (Ostertaqia circumcincta) and small intestinal hairworms (Trichostrongylus colubriformis) by administering it orally to 24 sheep artificially infected with said two worm species.
The infected sheep were divided into 4 groups of 6 animals, which were respectively given 1 mg/kg, 5 mg/kg, 10 mg/kg and 0 mg/kg (control) of the substance suspended in 0.5% CMC, via a stomach catheter. The observation items were the number of parasite eggs per gram of feces (EPG) before administration, the EPG 7 days after administration, and the number of worms remaining in the fourth stomach and that of worms remaining in the intestinal tract as found upon autopsy 7 days after administration.
Each numerical value given is the mean of 6 animals.

[5] = tested on: digestive tract nematodes (Haemonchus controtus, Ostertaqia ostertagi, hairworms, cooperids, etc.); assay: Anthelmintic effect on bovine digestive tract nematodes (EPG); format: in vivo; settings: cattle
Experimental: The PF 1022 substance was evaluated for its anthelmintic effect on the so-called digestive tract nematodes parasitizing cattle by orally administering it to three head of cattle found to be infected with such nematodes (Haemonchus controtus, Ostertaqia ostertagi, hairworms, cooperids, etc.) by scatoscopy.
The PF 1022 substance was administered either once at 5 mg/kg or for 2 days once daily at 12.5 mg/kg, in the form of a suspension in water, using a stomach catheter. Parasite eggs in feces (EPG) were counted daily for 3 days before administration and for 7 days following administration.

[6] = tested on: roundworms (Parascaris equorum); assay: Anthelmintic effect on equine roundworms; format: in vivo; settings: horse, oral 5 mg/kg Day 0 and 2.5 mg/kg Day 1
Experimental: as §1, §2

CC(C)C[C@H]1C(=O)O[C@H](Cc2ccccc2)C(=O)N(C)[C@@H](CC(C)C)C(=O)O[C@H](C)C(=O)N(C)[C@@H](CC(C)C)C(=O)O[C@H](Cc2ccccc2)C(=O)N(C)[C@@H](CC(C)C)C(=O)O[C@H](C)C(=O)N1C [PF 1022 substance]
Number of worms remaining ([1]; 1 ppm in feed for 3 weeks, autopsy): 49 and 96 and 83 | Number of eggs before starting administration ([1]; 1 ppm in feed): > 300 and 172 | % Elimination ([1]; 5 ppm in feed for 3 weeks): 86.1% and 56.9% and 62.5% | Number of eggs before starting administration ([1]; 5 ppm in feed): 300 and > 300 and 158 | Number of worms eliminated ([1]; 10 ppm in feed for 3 weeks): 44 and 55 and 45 | Number of eggs before starting administration ([1]; 10 ppm in feed): 300 and > 300 and 176 | EPG ([2]; Day 0): 265 | Number of worms eliminated ([2]; Day 0): 0 per 100 g feces | EPG ([2]; Day 1): 82 | Number of worms eliminated ([2]; Day 1): 82 per 100 g feces | EPG ([2]; Day 2): 0.6 | Number of worms eliminated ([2]; Day 2): 0 per 100 g feces | EPG ([2]; Day 3): 0.4 | Number of worms eliminated ([2]; Day 3): 0 per 100 g feces | EPG ([2]; Day 4): 0 | Number of worms eliminated ([2]; Day 4): 0 per 100 g feces | EPG ([2]; Day 5): 0 | Number of worms eliminated ([2]; Day 5): 0 per 100 g feces | EPG ([2]; Day 6): 0.2 | Number of worms eliminated ([2]; Day 6): 0 per 100 g feces | Number of worms eliminated ([2]; Day 7): 0 per 100 g feces | Solubility (Solubility; methanol, ethyl acetate, acetone, chloroform and dimethyl sulfoxide): Soluble | Solubility (Solubility; water): insoluble | elimination [3]: 100% | hookworms eliminated ([3]; 7 days): Twelve | hookworms remaining ([3]; 7 days): no hookworms were found remaining | number of worms remaining in the fourth stomach at autopsy ([4]; oral 1 mg/kg): 4967 | number of worms remaining in the fourth stomach at autopsy ([4]; oral 5 mg/kg): 4717 | number of worms remaining in the fourth stomach relative to the control infected group ([4]; oral 10 mg/kg): about half | number of worms remaining in the fourth stomach at autopsy ([4]; oral 10 mg/kg): 2463 | EPG relative to that found before administration ([5]; 2 day administration at 12.5 mg/kg, day after the second day of administration): about half | EPG ([5]; oral 5.0 mg/kg x 1, Day 0 (day of first administration)): 34 | EPG ([5]; oral 5.0 mg/kg x 1, Day 1): 44 | EPG ([5]; oral 5.0 mg/kg x 1, Day 2): 61 | EPG ([5]; oral 5.0 mg/kg x 1, Day 3): 18 | EPG ([5]; oral 5.0 mg/kg x 1, Day 4): 30 | EPG ([5]; oral 5.0 mg/kg x 1, Day 5): 6 | EPG ([5]; oral 5.0 mg/kg x 1, Day 6): 27 | EPG ([5]; oral 5.0 mg/kg x 1, Day 7): 7 | EPG ([5]; oral 5.0 mg/kg x 1, Day -1 (before administration)): 34 | EPG ([5]; oral 5.0 mg/kg x 1, Day -2 (before administration)): 32 | EPG ([5]; oral 5.0 mg/kg x 1, Day -3 (before administration)): 30 | EPG ([5]; oral 12.5 mg/kg x 2, Day 0 (day of first administration), 12.5 mg/kg): 112 and 64 | EPG ([5]; oral 12.5 mg/kg x 2, Day 2, 12.5 mg/kg): 26 and 30 | EPG ([5]; oral 12.5 mg/kg x 2, Day 3, 12.5 mg/kg): 34 and 41 | EPG ([5]; oral 12.5 mg/kg x 2, Day 4, 12.5 mg/kg): 41 and 29 | EPG ([5]; oral 12.5 mg/kg x 2, Day 5, 12.5 mg/kg): 41 and 34 | EPG ([5]; oral 12.5 mg/kg x 2, Day 6, 12.5 mg/kg): 42 and 40 | EPG ([5]; oral 12.5 mg/kg x 2, Day 7, 12.5 mg/kg): 49 and 36 | EPG ([5]; oral 12.5 mg/kg x 2, Day -1 (before administration), 12.5 mg/kg): 109 and 67 | EPG ([5]; oral 12.5 mg/kg x 2, Day -2 (before administration), 12.5 mg/kg): 109 and 58 | EPG ([5]; oral 12.5 mg/kg x 2, Day -3 (before administration), 12.5 mg/kg): 91 and 58 | EPG ([6]; Day 0): 77 | Number of worms eliminated ([6]; Day 0): 0 | EPG ([6]; Day 1): 52 | Number of worms eliminated ([6]; Day 1): 22 | EPG ([6]; Day 2): 0.4 | Number of worms eliminated ([6]; Day 2): 17 | EPG ([6]; Day 3): 0.2 | Number of worms eliminated ([6]; Day 3): 0 | EPG ([6]; Day 4): 0 | Number of worms eliminated ([6]; Day 4): 0 | EPG ([6]; Day 5): 0 | Number of worms eliminated ([6]; Day 5): 0 | EPG ([6]; Day 6): 0.2 | Number of worms eliminated ([6]; Day 6): 0 | EPG ([6]; Day 7): 0 | Number of worms eliminated ([6]; Day 7): 0
